From patent publication US9840513B2 (AbbVie S.à.r.l., priority 2015, dated 2017) come the findings set out here.

For orientation: EC50 means the concentration needed to bring the measured effect to its halfway point. The low end stands for a more potent agent, the high end for a less potent agent.

For this assay, the target named is T1, F508delCFTR cell surface expression in CFBE41o-F508delCFTR-HRP cells (Homo sapiens, UniProt P13569, DEL508-508).
T1 construct: fused on or other part: Horseradish peroxidase (HRP) reporter inserted in the fourth exofacial (extracellular) loop of CFTR; expression is doxycycline-inducible
T1 sequence (P13569 with tags, fused parts or gaps DEL508-508 limits assumed): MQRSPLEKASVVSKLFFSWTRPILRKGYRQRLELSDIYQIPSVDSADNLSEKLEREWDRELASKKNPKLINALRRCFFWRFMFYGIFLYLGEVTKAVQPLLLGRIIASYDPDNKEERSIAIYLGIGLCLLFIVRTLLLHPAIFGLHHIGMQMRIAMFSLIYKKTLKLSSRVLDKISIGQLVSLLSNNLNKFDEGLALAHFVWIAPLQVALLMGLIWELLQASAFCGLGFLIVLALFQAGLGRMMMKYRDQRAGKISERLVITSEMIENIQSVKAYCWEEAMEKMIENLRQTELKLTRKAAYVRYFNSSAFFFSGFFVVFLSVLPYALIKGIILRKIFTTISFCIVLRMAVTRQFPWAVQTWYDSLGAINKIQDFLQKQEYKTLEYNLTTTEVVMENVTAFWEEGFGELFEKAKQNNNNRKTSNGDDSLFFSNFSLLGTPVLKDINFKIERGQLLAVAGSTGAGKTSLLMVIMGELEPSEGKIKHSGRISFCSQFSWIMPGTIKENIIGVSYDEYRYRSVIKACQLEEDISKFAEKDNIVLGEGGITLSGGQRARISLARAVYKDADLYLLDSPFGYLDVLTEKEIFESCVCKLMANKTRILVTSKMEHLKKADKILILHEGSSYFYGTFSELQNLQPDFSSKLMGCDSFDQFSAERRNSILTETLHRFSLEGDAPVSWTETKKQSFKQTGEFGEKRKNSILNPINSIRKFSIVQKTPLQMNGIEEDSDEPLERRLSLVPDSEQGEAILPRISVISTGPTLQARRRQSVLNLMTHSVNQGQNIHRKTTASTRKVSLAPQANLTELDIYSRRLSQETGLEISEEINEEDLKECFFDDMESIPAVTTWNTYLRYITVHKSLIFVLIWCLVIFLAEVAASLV
T1 sequence (P13569 919-1480 limits assumed, stated change not applied): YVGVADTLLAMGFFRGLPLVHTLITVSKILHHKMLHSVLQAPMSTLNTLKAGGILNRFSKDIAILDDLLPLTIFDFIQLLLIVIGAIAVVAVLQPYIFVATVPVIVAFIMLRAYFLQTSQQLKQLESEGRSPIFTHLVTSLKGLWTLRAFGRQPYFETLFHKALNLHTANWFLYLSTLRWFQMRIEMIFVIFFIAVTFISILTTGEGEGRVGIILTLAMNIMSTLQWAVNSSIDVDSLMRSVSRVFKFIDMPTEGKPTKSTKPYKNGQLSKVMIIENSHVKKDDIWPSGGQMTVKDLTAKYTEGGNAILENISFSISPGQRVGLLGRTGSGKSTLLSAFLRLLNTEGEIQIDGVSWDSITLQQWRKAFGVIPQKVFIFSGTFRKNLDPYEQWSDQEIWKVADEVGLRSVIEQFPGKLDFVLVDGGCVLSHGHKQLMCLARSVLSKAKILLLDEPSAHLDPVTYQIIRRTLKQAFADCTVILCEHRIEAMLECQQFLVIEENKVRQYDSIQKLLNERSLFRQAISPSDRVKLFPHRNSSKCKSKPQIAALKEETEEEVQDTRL
Put plainly: Cell Surface Expression-Horse Radish Peroxidase (CSE-HRP) Assay. The conditions noted are these: for EC50: CFBE41o-F508delCFTR-HRP cells, 18-24 hours at 33° C., 8-point curve, highest concentration 20 μM; for Maximum % activity (%): maximum at any tested concentration, normalized to on-plate positive control (3 μM). Type of assay: cell-based. The essentials: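 Correctors incubated 18-24 h at 33 °C on doxycycline-induced (0.5 μg/mL, 72 h) CFBE41o-F508delCFTR-HRP cells, 3-fold series from 20 μM. After DPBS washes, luminol luminescence read; activity expressed relative to DMSO and a 3 μM positive control, EC50 fitted from triplicate plates.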

`COC(=O)c1cccc(-n2nc(C3CC3)cc(NC(=O)C3(C)COc4cc5c(cc43)OC(F)(F)O5)c2=O)c1` (stereo not drawn) [Example 40, methyl 3-{3-cyclopropyl-5-[(2,2-difluoro-7-methyl-6,7-dihydro-2H-furo[2,3-f][1,3]benzodioxole-7-carbonyl)amino]-6-oxopyridazin-1(6H)-yl}benzoate]: the concentration giving a half-maximal response (EC50) came to 0.21 µM and the “Maximum % activity (%)” value was 132%.
The matching figures for `CNC(=O)c1cccc(-c2nc(NC(=O)C3(C)COc4cc5c(cc43)OC(F)(F)O5)ccc2C)c1` (stereo not drawn) [Example 76, 2,2-difluoro-7-methyl-N-{5-methyl-6-[3-(methylcarbamoyl)phenyl]pyridin-2-yl}-6,7-dihydro-2H-furo[2,3-f][1,3]benzodioxole-7-carboxamide]: 0.72 µM and 111%.
For `C[C@]1(C(=O)N[C@@H]2C[C@H](C3(C(=O)N(CCO)CCO)CC3)Oc3cc(OC(F)(F)F)ccc32)COc2cc3c(cc21)OC(F)(F)O3` [Example 279, (7R)—N-[(2R,4R)-2-{1-[bis(2-hydroxyethyl)carbamoyl]cyclopropyl}-7-(trifluoromethoxy)-3,4-dihydro-2H-1-benzopyran-4-yl]-2,2-difluoro-7-methyl-6,7-dihydro-2H-furo[2,3-f][1,3]benzodioxole-7-carboxamide], in that order: 0.56 µM and 119%.
The matching figures for “(7R)—N-(6-{[2R)-2,3-dihydroxypropyl]amino}pyridin-2-yl)-2,2-difluoro-7-methyl-6,7-dihydro-2H-furo[2,3-f][1,3]benzodioxole-7-carboxamide [Example 92]”: 1.72 µM and 98%.
Consider `COC(=O)c1cccc([C@H]2C[C@@H](NC(=O)C3(C)CCc4cc5c(cc43)OC(F)(F)O5)c3ccc(OC)cc3O2)c1` (stereo partly drawn) [Example 52, methyl 3-{(2R,4R)-4-[(2,2-difluoro-5-methyl-6,7-dihydro-2H,5H-indeno[5,6-d][1,3]dioxole-5-carbonyl)amino]-7-methoxy-3,4-dihydro-2H-1-benzopyran-2-yl}benzoate], for which the EC50 was 0.96 µM and the “Maximum % activity (%)” value is 77%.
The matching figures for `CC1(C)OC[C@@H](Cn2nc(-c3ccccc3)cc(NC(=O)C3(C)COc4cc5c(cc43)OC(F)(F)O5)c2=O)O1` (stereo partly drawn) [Example 24, N-(2-{[(4R)-2,2-dimethyl-1,3-dioxolan-4-yl]methyl}-3-oxo-6-phenyl-2,3-dihydropyridazin-4-yl)-2,2-difluoro-7-methyl-6,7-dihydro-2H-furo[2,3-f][1,3]benzodioxole-7-carboxamide]: 1.18 µM and 70%.
For `COc1ccc2c(c1)O[C@@H](c1ccc(C(=O)O)cc1)C[C@H]2NC(=O)[C@]1(C)COc2cc3c(cc21)OC(F)(F)O3` [Example 18, 4-[(2R,4R)-4-{[(7S)-2,2-difluoro-7-methyl-6,7-dihydro-2H-furo[2,3-f][1,3]benzodioxole-7-carbonyl]amino}-7-methoxy-3,4-dihydro-2H-1-benzopyran-2-yl]benzoic acid], in that order: 5.75 µM and 91%.
The matching figures for `CC(O)CNC(=O)[C@H]1CC[C@H]([C@H]2C[C@@H](NC(=O)[C@@]3(C)COc4cc5c(cc43)OC(F)(F)O5)c3ccc(OC(F)(F)F)cc3O2)CC1` (stereo partly drawn) [Example 258, (7R)-2,2-difluoro-N-[(2R,4R)-2-{trans-4-[(2-hydroxypropyl)carbamoyl]cyclohexyl}-7-(trifluoromethoxy)-3,4-dihydro-2H-1-benzopyran-4-yl]-7-methyl-6,7-dihydro-2H-furo[2,3-f][1,3]benzodioxole-7-carboxamide]: 0.11 µM and 174%.
Regarding `C[C@]1(C(=O)Nc2cc(-c3ccccc3)cn(-c3ccc(C(=O)O)cc3)c2=O)COc2cc3c(cc21)OC(F)(F)O3` [Example 99, 4-[3-{[(7R)-2,2-difluoro-7-methyl-6,7-dihydro-2H-furo[2,3-f][1,3]benzodioxole-7-carbonyl]amino}-2-oxo-5-phenylpyridin-1(2H)-yl]benzoic acid], the EC50 stood at 0.23 µM and the “Maximum % activity (%)” value is 71%.
As for `COc1ccc2c(c1)O[C@@H](c1ccc(C(=O)N3CCCOCC3)cn1)C[C@H]2NC(=O)[C@@]1(C)COc2cc3c(cc21)OC(F)(F)O3` [Example 219, (7R)-2,2-difluoro-N-{(2R,4R)-7-methoxy-2-[5-(1,4-oxazepane-4-carbonyl)pyridin-2-yl]-3,4-dihydro-2H-1-benzopyran-4-yl}-7-methyl-6,7-dihydro-2H-furo[2,3-f][1,3]benzodioxole-7-carboxamide], the EC50 was 0.03 µM and the “Maximum % activity (%)” value is reported as 105%.
Take `Cc1cc(C(=O)O)ccc1-c1cccc(NC(=O)[C@@]2(C)COc3cc4c(cc32)OC(F)(F)O4)n1` [Example 120, 4-(6-{[(7R)-2,2-difluoro-7-methyl-6,7-dihydro-2H-furo[2,3-f][1,3]benzodioxole-7-carbonyl]amino}pyridin-2-yl)-3-methylbenzoic acid]: the EC50 stood at 1.44 µM and the “Maximum % activity (%)” value is reported as 253%.
For `CC1(C)OC[C@H](CN2CCC([C@H]3C[C@@H](NC(=O)[C@@]4(C)COc5cc6c(cc54)OC(F)(F)O6)c4ccc(OC(F)(F)F)cc4O3)CC2)O1` [Example 247, (7R)—N-[(2R,4R)-2-(1-{[(4S)-2,2-dimethyl-1,3-dioxolan-4-yl]methyl}piperidin-4-yl)-7-(trifluoromethoxy)-3,4-dihydro-2H-1-benzopyran-4-yl]-2,2-difluoro-7-methyl-6,7-dihydro-2H-furo[2,3-f][1,3]benzodioxole-7-carboxamide], in that order: 1.18 µM and 181%.
For `C[C@]1(C(=O)N[C@@H]2C[C@H]([C@H]3CC[C@H](C(=O)N(CCO)CCO)CC3)Oc3cc(OC(F)(F)F)ccc32)COc2cc3c(cc21)OC(F)(F)O3` [Example 254, (7R)—N-[(2R,4R)-2-{trans-4-[bis(2-hydroxyethyl)carbamoyl]cyclohexyl}-7-(trifluoromethoxy)-3,4-dihydro-2H-1-benzopyran-4-yl]-2,2-difluoro-7-methyl-6,7-dihydro-2H-furo[2,3-f][1,3]benzodioxole-7-carboxamide], in that order: 0.08 µM and 136%.
The matching figures for `CCN(CCO)C(=O)c1ccc([C@H]2C[C@@H](NC(=O)[C@@]3(C)COc4cc5c(cc43)OC(F)(F)O5)c3ccc(OC)cc3O2)nc1` [Example 235, 6-[(2R,4R)-4-{[(7R)-2,2-difluoro-7-methyl-6,7-dihydro-2H-furo[2,3-f][1,3]benzodioxole-7-carbonyl]amino}-7-methoxy-3,4-dihydro-2H-1-benzopyran-2-yl]-N-ethyl-N-(2-hydroxyethyl)pyridine-3-carboxamide]: 0.05 µM and 114%.
As for `C[C@]1(C(=O)N[C@@H]2C[C@H](C3CCC(CN)(C(=O)O)CC3)Oc3cc(OC(F)(F)F)ccc32)COc2cc3c(cc21)OC(F)(F)O3` (stereo partly drawn) [Example 289, 1-(aminomethyl)-4-[(2R,4R)-4-{[(7R)-2,2-difluoro-7-methyl-6,7-dihydro-2H-furo[2,3-f][1,3]benzodioxole-7-carbonyl]amino}-7-(trifluoromethoxy)-3,4-dihydro-2H-1-benzopyran-2-yl]cyclohexane-1-carboxylic acid], the EC50 turned out to be 0.64 µM and the “Maximum % activity (%)” value is on record as 140%.
